Test system: pentylenetetrazol (PTZ)-induced ictal brain activity
Assay: Modulation of pentylenetetrazol (PTZ)-induced seizures, BOLD fMRI in rats
Format: in vivo, male Wistar rats
Details: for PTZ-induced brain activity, positive control compounds: Alprazolam 3 mg/kg i.p., 1 dose, no dose printed for Diazepam
Method: Functional MRI (fMRI) was performed using a high-field preclinical MRI system in anesthetized male Wistar rats in order to determine the modulation of pentylenetetrazol (PTZ)-induced ictal brain activity by chronic treatment with test compound (TC). […] Vehicle and 3 mg/kg Alprazolam served as controls (see, Table 11) Seizures were induced with PTZ in each experimental group. A schematic of the study design can be seen in FIG. 6. Various physiological parameters were also measured throughout the experiment including body weight, CO2 levels, blood pH, and heart rate. […] Vehicle and 3 mg/kg Alprazolam served as controls (see, Table 12).

CN1C(=O)CN=C(c2ccccc2)c2cc(Cl)ccc21 [Diazepam]
PTZ-induced brain activity, positive control compounds: effectively cancelled PTZ-induced brain activity with high statistical significance in all tested brain regions

Cc1nnc2n1-c1ccc(Cl)cc1C(c1ccccc1)=NC2 [Alprazolam]
PTZ-induced brain activity, positive control compounds: effectively cancelled PTZ-induced brain activity with high statistical significance in all tested brain regions
brain regions with statistical significance of BOLD fMRI AUC, Vehicle vs. Alprazolam (FIG. 7A, Alprazolam 3 mg/kg+PTZ, two-way ANOVA): in all

From US20250222018A1, “METHODS OF USING AVERMECTIN COMPOSITIONS FOR THE TREATMENT OF PAIN AND DOSING REGIMENS” (L4 BIO LLC, priority 2022, published 2025)
